Assay results published in patent publication US20230414472A1, “COSMETIC COMPOSITION INCLUDING GARLIC EXTRACT, BLACK TEA EXTRACT, AND GUAVA EXTRACT” (COSMAX INC., priority 2022, published 2023).

Assays:
[1] = target: T1, SNARE complex (SNAP-25, syntaxin 1a, VAMP-2) (Homo sapiens, UniProt P60880+P63027+Q16623); assay: Inhibitory effect on membrane fusion (SNARE liposome fusion, fluorescence intensity); type: biochemical; conditions: 100 μM myricetin; FIG. 1
T1 construct: GST (inferred from purification on glutathione agarose beads); made in house; host or cells: E. coli
Method: The inhibitory effect of the composition according to an embodiment on the membrane fusion was confirmed. Also, since myricetin was predicted as an active ingredient, the inhibitory effect of 100 μM of myricetin (Sigma-Aldrich) on the membrane fusion was also confirmed.
First, a soluble nethylmaleimide-sensitive factor attachment protein (SNAP) receptor protein was overexpressed in transformed E. coli, and then the expressed protein was selectively purified and obtained by using glutathione agarose beads. Then, […] (POPC, 62 mol %), 1,2-dioleoyl-sn-glycero-3-phosphatidylserine (DOPS, 35 mol %), 1,2-dioleoyl-sn-glycero-3-phosphoserine-N-(7-nitro-2-1,3-benzoxadiazol-4-yl) (NBD-PS, 1.5 mol %), and a fluorescent material, rhodamine (rhodamin-PE, 1.5 mol %) were mixed to prepare a 10 mM fluorescent substance-labeled liposome (v-vesicle). Meanwhile, DOPS and POPC were mixed to a molar concentration of 35:65 to prepare a 50 mM liposome (t-vesicle) that is not labeled with a fluorescent substance. Then, purified synaptosomal-associated protein, SNAP-25, and syntaxin 1a were mixed at a molar concentration of 1:1 and allowed for a reaction for 1 hour at room temperature, followed by mixing with the liposome that is not labeled with a fluorescent substance at a molar ratio of 100:1. […]
Then, the fluorescence intensity thereof was measured.

VAMP2 = VAMP2 level in human skin explant (fluorescence staining); type: cell-based; conditions: 10 μL sample at set concentrations, cultured 72 hours, FIG. 3
[2] = test system: acetylcholine release in human skin tissue; assay: Acetylcholine release in human skin explant (choline/acetylcholine assay kit); type: cell-based; conditions: 10 μL sample every day for 3 days, FIG. 4

T1 sequence (P60880 whole entry, the tested form may be a part): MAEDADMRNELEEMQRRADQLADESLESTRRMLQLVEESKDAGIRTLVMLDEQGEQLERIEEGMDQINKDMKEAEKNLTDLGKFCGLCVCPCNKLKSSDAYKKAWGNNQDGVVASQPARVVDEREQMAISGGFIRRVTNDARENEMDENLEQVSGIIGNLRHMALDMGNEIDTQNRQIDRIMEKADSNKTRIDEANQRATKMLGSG
T1 sequence (Q16623 whole entry, the tested form may be a part): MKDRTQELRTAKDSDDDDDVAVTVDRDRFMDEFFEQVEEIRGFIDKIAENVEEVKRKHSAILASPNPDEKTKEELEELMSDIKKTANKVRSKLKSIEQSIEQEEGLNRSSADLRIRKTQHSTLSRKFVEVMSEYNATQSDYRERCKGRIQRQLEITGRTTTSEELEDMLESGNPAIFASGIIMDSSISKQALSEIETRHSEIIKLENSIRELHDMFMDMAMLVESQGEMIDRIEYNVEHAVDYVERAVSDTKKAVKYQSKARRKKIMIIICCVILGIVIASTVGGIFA
T1 sequence (P63027 whole entry, the tested form may be a part): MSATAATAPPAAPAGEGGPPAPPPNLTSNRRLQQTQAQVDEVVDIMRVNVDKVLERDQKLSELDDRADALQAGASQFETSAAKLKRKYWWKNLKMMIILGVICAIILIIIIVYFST

## O=c1c(O)c(-c2cc(O)c(O)c(O)c2)oc2cc(O)cc(O)c12 [myricetin]
[1]
  membrane fusion rate: most significantly reduced
VAMP2
  VAMP2 level in the skin tissue: significantly reduced
[2]
  amount of acetylcholine released in the skin tissue: significantly reduced
